Ten molecules from PMC12473123, “Structure–Function Insights into Quinuclidine-3-One BisQACs: Synthesis, Modulation of Bacterial Resistance, Structure–Activity Relationship, and Biological Profiling” (Pharmaceuticals, 2025) can be followed below.

A value given as a limit tells only on which side of the number the result lay.

A word on the IC50: it is the concentration at which inhibition is half-maximal. By inhibition is commonly meant the relative decrease from the control value, in per cent.

The subject of test [1] is Staphylococcus aureus ATCC 25923. In words: Broth microdilution MIC. Type of test: cell-based. As to conditions: for MIC: Staphylococcus aureus, ATCC25923, read-out: Minimum Inhibitory Concentrations (MIC). A general note: Broth dilution looks for growth in wells or tubes with falling amounts of substance.
Test [2] deals with Enterococcus faecalis ATCC 29212. The experiment in a line: Broth microdilution MIC. As to conditions: for MIC: Enterococcus faecalis, ATCC29212, read-out: Minimum Inhibitory Concentrations (MIC), Enterococcus faecalis ATCC 29212. The format is cell-based.
For test [3], the system named is Bacillus cereus ATCC 14579. The experiment in a line: Broth microdilution MIC. The note with it: ATCC14579, read-out: Minimum Inhibitory Concentrations (MIC), Bacillus cereus ATCC 14579. The format is cell-based.
Test [4] has as its system Listeria monocytogenes ATCC 7644. The experiment in a line: Broth microdilution MIC. As to conditions: Listeria monocytogenes, ATCC7644, read-out: Minimum Inhibitory Concentrations (MIC), Listeria monocytogenes ATCC 7644. The format is cell-based.
Test [5] concerns Escherichia coli ATCC 25922. In words: Broth microdilution MIC. The note with it: for MIC: Escherichia coli, ATCC25922, read-out: Minimum Inhibitory Concentrations (MIC). Type of test: cell-based.
The test system of test [6] is Staphylococcus aureus Clinical/MRSA. The experiment in a line: Broth microdilution MIC. The format is cell-based. As to conditions: for MIC: Staphylococcus aureus, MRSA, read-out: Minimum Inhibitory Concentrations (MIC).
Test [7] concerns Salmonella enterica (food isolate). The experiment in a line: Broth microdilution MIC. The format is cell-based. The note with it: read-out: Minimum Inhibitory Concentrations (MIC).
Test [8] concerns Pseudomonas aeruginosa ATCC 27853. In words: Broth microdilution MIC. The format is cell-based. As to conditions: Pseudomonas aeruginosa, ATCC27853, read-out: Minimum Inhibitory Concentrations (MIC).
In test [9] the test system is Staphylococcus aureus ATCC 33591 (methicillin-resistant). The experiment in a line: Broth microdilution MIC. As to conditions: for MIC: Staphylococcus aureus, ATCC33591, read-out: Minimum Inhibitory Concentrations (MIC). Type of test: cell-based.
Test [10] relates to Staphylococcus aureus ATCC 25923. In words: Biofilm inhibition assay (crystal violet). The format is cell-based. As to the method: (§1) The ability of the candidate compounds to inhibit biofilm formation was evaluated by determining the minimum biofilm inhibitory concentration (MBIC) against the biofilm-forming strains Staphylococcus aureus ATCC 25923 and Listeria monocytogenes ATCC 7644. Overnight bacterial cultures were diluted in fresh, pre-warmed Mueller–Hinton broth (MHB) and incubated at 37 °C with constant shaking at 220 rpm. Once the cultures reached the exponential growth phase (OD600 = 0.3–0.5), they were standardized to a final concentration of 4 × 10^6 CFU/mL.
(§2) Plates were incubated at 37 °C for 24 to 48 h, depending on the bacterial strain. After incubation, the planktonic cells were carefully aspirated to preserve the integrity of the biofilm layer. Wells were gently rinsed with sterile ultrapure Milli-Q water and air-dried at 60 °C for 1 h to fix the biofilms. Biofilm formation was quantified using a crystal violet (CV) staining method. Wells were stained with 100 µL of 0.1% CV solution and incubated at room temperature for 1 h. Excess dye was removed by rinsing with sterile ultrapure Milli-Q water, followed by air-drying. Bound CV was solubilized with 100 µL of 70% ethanol and incubated for 30 min. The solubilized dye was transferred to a fresh plate, and absorbance was measured at 595 nm using a microplate reader (Bio-Tek EL808, Winooski, VT, USA). Absorbance values were directly proportional to biofilm biomass. Untreated bacterial cultures served as positive controls for biofilm formation, while sterile MHB served as the negative control.

In test [11] the test system is Listeria monocytogenes ATCC 7644. In words: Biofilm inhibition assay (crystal violet). Type of test: cell-based. The note with it: L. monocytogenes. As to the method:
as §1
as §2, with “Aliquots (50 µL) of the standardized bacterial suspension were inoculated into 96-well microtiter plates containing the test compounds at final concentrations of 100, 50, 25, and 12.5 µg/mL. Plates” for “Plates”

Test [12] concerns HEK293 cells. In words: Cytotoxicity MTS assay. The format is cell-based, human. As to conditions: HEK293 cells, 48 h, MTS; read-out: IC50 HEK293. The protocol: (§3) The cytotoxic potential of the selected drug candidates was evaluated using the CellTiter 96® AQueous One Solution Cell Proliferation Assay (Promega, Madison, WI, USA), following the manufacturer’s protocol. Human cell lines RPE1 and HEK293 were cultured at 37 °C in a humidified incubator with 5% CO2. Test compounds were dissolved in the appropriate growth medium and serially diluted across a range of concentrations in 96-well microtiter plates. Each well was seeded with 5000 cells and incubated for 48 h under standard culture conditions. Following this incubation period, 20 µL of MTS reagent was added to each well, and the plates were further incubated for 3 h to allow for color development. Absorbance was measured at 490 nm using a microplate reader to determine cell viability. Cytotoxicity was quantified as the half-maximal inhibitory concentration (IC50), defined as the concentration of compound that reduced cell viability by 50%. […] IC50 values were calculated using GraFit 6.0 software by plotting compound concentration against absorbance and fitting the data to a sigmoidal dose–response curve.

Test [13] relates to RPE1 cells. The experiment in a line: Cytotoxicity MTS assay. Type of test: cell-based, human. The note with it: RPE1 cells, 48 h, MTS; read-out: IC50 RPE1. As to the method: as §3
On the technique in general: Formazan colour is commonly taken as a measure of viable cells.

As for `O=C1C[N+]2(CCCCCC[N+]34CCC(CC3)C(=O)C4)CCC1CC2` [2(QO)6, 1,1′-(Hexane-1,6-diyl) bis(3-oxoquinuclidinium) dibromide], the MIC in [1], in [2], in [3], in test [4], in test [5] and in test [6] was more than 75 µM in each case. For the same molecule, the MIC in test [7], in test [8] and in [9] was more than 75 µM each time.
On to `CCCCCCCCCCCC[N+](C)(C)Cc1ccccc1.[Br-]` [BAB, benzyldodecyldimethylammonium bromide, reference compound], for which the “Minimum Inhibitory Concentrations (MIC)” value in [1] (Staphylococcus aureus ATCC 25923) came to 10 µM; in test [2] (Enterococcus faecalis ATCC 29212), 15 µM; in [5] (Escherichia coli ATCC 25922) it was 63 µM; in test [6] (Staphylococcus aureus Clinical/MRSA), 25 µM; in test [9] (Staphylococcus aureus ATCC 33591), 25 µM. The biofilm inhibition is more than 74% in test [10] (S. aureus ATCC 25923, across all tested concentrations); “comparable values” in test [11] (12.5 µg/mL); 20% in test [11] (25 µg/mL); “remaining consistent” in test [11] (50 µg/mL); 44% in test [11] (100 µg/mL). Moreover, the MIC in test [7] is 50 µM. The IC50 amounted to 3 µM in test [12] and 0.82 µM in test [13].
For `CCCCCCCCCCCCNC1C[N+]2(CCCC[N+]34CCC(CC3)C(NCCCCCCCCCCCC)C4)CCC1CC2` (racemic) [2(QC12)4, (±)-1,1′-(Butane-1,4-diyl) bis(3-(dodecylamino)quinuclidinium) dibromide], the MIC in test [1] was more than 75 µM; in test [2], more than 75 µM; in test [3], more than 75 µM; in test [4] it was 75 µM; in test [5] it was more than 75 µM; in test [6], more than 75 µM. Besides, the MIC is more than 75 µM in test [7], more than 75 µM in test [8] and 75 µM in test [9].
As to `CO/N=C(\C(=O)N[C@@H]1C(=O)N2C(C(=O)O)=C(COC(C)=O)CS[C@H]12)c1csc(N)n1` [CFX, cefotaxime, reference compound], the biofilm inhibition in test [10] (S. aureus ATCC 25923, 50 µg/mL) was 62%; in test [11] (12.5 µg/mL), “similarly low values”. Further, in [11] (Listeria monocytogenes, ATCC7644, 25 µg/mL, read-out: biofilm inhibition), the inhibition at 25 µg/mL is 6%. The inhibition at 50 µg/mL in [11] (Listeria monocytogenes, ATCC7644, 50 µg/mL, read-out: biofilm inhibition) is more than 20%. For the same molecule, the inhibition at 100 µg/mL in test [11] (Listeria monocytogenes, ATCC7644, 100 µg/mL, read-out: biofilm inhibition) was more than 20%.
Take `O=C1C[N+]2(CCCC[N+]34CCC(CC3)C(=O)C4)CCC1CC2` [2(QO)4, 1,1′-(Butane-1,4-diyl) bis(3-oxoquinuclidinium) dibromide]: the MIC in test [1], in test [2], in [3], in [4], in [5] and in test [6] was more than 75 µM throughout. Further, the MIC in test [7], in test [8] and in test [9] was more than 75 µM throughout.
As for `CCCCCCCCCCCCCCNC1C[N+]2(CCC[N+]34CCC(CC3)C(NCCCCCCCCCCCCCC)C4)CCC1CC2` (racemic) [2(QC14)3, (±)-1,1′-(Propane-1,3-diyl) bis(3-(tetradecylamino)quinuclidinium) dibromide], the MIC in test [1] was 75 µM; in [2], more than 75 µM; in [3] it was more than 75 µM; in test [4], 38 µM; in test [5], more than 75 µM; in [6] it was more than 75 µM. For the same molecule, the MIC in test [7] is more than 75 µM; in test [8], more than 75 µM; in test [9] it was 75 µM.
In the case of `CCCCCCCCCCCCNC1C[N+]2(CCCCCC[N+]34CCC(CC3)C(NCCCCCCCCCCCC)C4)CCC1CC2` (racemic) [2(QC12)6, (±)-1,1′-(Hexane-1,6-diyl) bis(3-(dodecylamino)quinuclidinium) dibromide], the MIC in test [1] was 75 µM; in test [2], 75 µM; in [3], more than 75 µM; in test [4], 38 µM; in [5] it was 38 µM; in test [6] it was more than 75 µM. Moreover, the figures for the MIC in test [7], in test [8] and in test [9] were more than 75 µM, more than 75 µM and 19 µM, respectively.
As to `CCCCCCCCCCCCNC1C[N+]2(CCC[N+]34CCC(CC3)C(NCCCCCCCCCCCC)C4)CCC1CC2` (racemic) [2(QC12)3, (±)-1,1′-(Propane-1,3-diyl) bis(3-(dodecylamino)quinuclidinium) dibromide], the MIC in test [1] was 75 µM; in test [2], more than 75 µM; in [3], more than 75 µM; in [4] it was 38 µM; in test [5], more than 75 µM; in test [6] it was more than 75 µM. The MIC is 75 µM in test [7], more than 75 µM in test [8] and 75 µM in test [9].
Regarding `CCCCCCCCCCCCCCNC1C[N+]2(CCCC[N+]34CCC(CC3)C(NCCCCCCCCCCCCCC)C4)CCC1CC2` (racemic) [2(QC14)4, (±)-1,1′-(Butane-1,4-diyl) bis(3-(tetradecylamino)quinuclidinium) dibromide], the MIC in [1], in [2], in [3], in test [4], in test [5] and in test [6] was more than 75 µM each time. Also, the MIC is more than 75 µM in test [7], more than 75 µM in test [8] and 75 µM in test [9].
As for `O=C1C[N+]2(CCC[N+]34CCC(CC3)C(=O)C4)CCC1CC2` [2(QO)3, 1,1′-(Propane-1,3-diyl) bis(3-oxoquinuclidinium) dibromide], the MIC in test [1], in [2], in test [3], in [4], in test [5] and in test [6] was more than 75 µM each time. In addition, the MIC in [7], in test [8] and in test [9] was more than 75 µM in each case.
